Laboratory results reported in article PMC5562840, “TRPM6 and TRPM7 differentially contribute to the relief of heteromeric TRPM6/7 channels from inhibition by cytosolic Mg^2+ and Mg·ATP” (Scientific Reports, 2017).
Blank lines part the entries; values can stand above or below the compound they belong to.

Experiments:
mTRPM7 = target: T1, mTRPM7 (Mus musculus, UniProt Q923J1); assay: whole-cell patch clamp, intracellular dose response ([…] free Mg2+); format: cell-based
T1 construct: gene Trpm7; full-length mTRPM7 in pIRES2-EGFP, HEK 293 cells

mTRPM6 = target: T2, mTRPM6 (Mus musculus, UniProt Q8CIR4); assay: whole-cell patch clamp; […] inhibits currents; format: cell-based
T2 construct: gene Trpm6; full-length mTRPM6 (2028 aa) in pIRES2-EGFP, HEK 293 cells

[1] = target: mouse TRPM7 (mTRPM7) fused to a myc tag (mTRPM7-myc) (mouse) (UniProt Q923J1)
Chain of mouse TRPM7 (mTRPM7) fused to a myc tag (mTRPM7-myc) (mouse) (Q923J1 whole entry, the tested form may be a part): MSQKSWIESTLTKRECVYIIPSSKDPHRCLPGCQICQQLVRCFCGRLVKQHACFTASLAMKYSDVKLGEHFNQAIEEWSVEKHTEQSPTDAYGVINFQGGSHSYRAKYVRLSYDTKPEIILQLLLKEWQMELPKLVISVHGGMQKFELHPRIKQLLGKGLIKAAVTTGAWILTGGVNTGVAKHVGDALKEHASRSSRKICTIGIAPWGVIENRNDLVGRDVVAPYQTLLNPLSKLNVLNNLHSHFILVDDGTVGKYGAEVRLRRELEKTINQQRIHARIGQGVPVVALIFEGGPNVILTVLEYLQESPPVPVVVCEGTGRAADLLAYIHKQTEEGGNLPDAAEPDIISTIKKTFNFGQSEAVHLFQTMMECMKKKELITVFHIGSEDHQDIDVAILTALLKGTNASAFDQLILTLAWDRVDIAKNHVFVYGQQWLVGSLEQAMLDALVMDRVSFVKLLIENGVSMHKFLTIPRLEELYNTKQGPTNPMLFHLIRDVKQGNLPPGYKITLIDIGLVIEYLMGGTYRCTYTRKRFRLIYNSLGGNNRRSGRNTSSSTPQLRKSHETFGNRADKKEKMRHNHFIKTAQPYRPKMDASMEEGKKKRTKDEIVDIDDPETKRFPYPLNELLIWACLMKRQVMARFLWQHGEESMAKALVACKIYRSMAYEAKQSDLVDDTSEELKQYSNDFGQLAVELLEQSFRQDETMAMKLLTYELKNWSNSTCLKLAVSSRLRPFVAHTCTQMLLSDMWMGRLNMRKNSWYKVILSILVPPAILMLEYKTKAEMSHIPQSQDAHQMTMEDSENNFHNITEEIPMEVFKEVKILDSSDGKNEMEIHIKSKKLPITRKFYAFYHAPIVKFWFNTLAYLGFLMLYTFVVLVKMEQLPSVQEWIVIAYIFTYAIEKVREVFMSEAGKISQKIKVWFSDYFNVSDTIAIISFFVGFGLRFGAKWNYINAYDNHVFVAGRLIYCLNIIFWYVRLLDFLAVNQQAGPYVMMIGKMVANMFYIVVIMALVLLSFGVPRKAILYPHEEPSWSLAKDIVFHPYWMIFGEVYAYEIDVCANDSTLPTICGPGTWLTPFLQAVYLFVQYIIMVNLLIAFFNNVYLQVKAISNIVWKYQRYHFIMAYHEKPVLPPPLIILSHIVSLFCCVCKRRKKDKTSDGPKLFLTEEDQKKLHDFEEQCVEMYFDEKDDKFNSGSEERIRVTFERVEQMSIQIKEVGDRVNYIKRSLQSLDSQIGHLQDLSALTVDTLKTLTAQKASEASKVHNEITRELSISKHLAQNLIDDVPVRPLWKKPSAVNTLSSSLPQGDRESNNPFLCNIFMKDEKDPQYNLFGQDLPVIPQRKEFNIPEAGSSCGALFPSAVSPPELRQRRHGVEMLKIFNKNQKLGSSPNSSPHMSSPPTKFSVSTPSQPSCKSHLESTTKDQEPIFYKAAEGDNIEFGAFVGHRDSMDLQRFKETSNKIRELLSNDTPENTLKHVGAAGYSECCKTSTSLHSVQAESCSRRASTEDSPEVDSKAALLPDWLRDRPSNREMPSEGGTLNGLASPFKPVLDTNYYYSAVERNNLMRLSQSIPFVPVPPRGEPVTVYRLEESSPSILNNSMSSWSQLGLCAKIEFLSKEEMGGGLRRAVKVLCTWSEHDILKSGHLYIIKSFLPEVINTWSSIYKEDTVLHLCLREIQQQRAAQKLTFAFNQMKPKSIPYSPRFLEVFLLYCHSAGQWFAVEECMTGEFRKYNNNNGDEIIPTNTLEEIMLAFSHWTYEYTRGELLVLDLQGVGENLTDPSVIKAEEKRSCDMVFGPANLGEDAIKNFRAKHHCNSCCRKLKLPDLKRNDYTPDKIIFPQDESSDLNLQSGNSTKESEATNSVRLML

T1 sequence (Q923J1 whole entry): as the sequence (Q923J1 whole entry, the tested form may be a part) above
T2 sequence (Q8CIR4 whole entry): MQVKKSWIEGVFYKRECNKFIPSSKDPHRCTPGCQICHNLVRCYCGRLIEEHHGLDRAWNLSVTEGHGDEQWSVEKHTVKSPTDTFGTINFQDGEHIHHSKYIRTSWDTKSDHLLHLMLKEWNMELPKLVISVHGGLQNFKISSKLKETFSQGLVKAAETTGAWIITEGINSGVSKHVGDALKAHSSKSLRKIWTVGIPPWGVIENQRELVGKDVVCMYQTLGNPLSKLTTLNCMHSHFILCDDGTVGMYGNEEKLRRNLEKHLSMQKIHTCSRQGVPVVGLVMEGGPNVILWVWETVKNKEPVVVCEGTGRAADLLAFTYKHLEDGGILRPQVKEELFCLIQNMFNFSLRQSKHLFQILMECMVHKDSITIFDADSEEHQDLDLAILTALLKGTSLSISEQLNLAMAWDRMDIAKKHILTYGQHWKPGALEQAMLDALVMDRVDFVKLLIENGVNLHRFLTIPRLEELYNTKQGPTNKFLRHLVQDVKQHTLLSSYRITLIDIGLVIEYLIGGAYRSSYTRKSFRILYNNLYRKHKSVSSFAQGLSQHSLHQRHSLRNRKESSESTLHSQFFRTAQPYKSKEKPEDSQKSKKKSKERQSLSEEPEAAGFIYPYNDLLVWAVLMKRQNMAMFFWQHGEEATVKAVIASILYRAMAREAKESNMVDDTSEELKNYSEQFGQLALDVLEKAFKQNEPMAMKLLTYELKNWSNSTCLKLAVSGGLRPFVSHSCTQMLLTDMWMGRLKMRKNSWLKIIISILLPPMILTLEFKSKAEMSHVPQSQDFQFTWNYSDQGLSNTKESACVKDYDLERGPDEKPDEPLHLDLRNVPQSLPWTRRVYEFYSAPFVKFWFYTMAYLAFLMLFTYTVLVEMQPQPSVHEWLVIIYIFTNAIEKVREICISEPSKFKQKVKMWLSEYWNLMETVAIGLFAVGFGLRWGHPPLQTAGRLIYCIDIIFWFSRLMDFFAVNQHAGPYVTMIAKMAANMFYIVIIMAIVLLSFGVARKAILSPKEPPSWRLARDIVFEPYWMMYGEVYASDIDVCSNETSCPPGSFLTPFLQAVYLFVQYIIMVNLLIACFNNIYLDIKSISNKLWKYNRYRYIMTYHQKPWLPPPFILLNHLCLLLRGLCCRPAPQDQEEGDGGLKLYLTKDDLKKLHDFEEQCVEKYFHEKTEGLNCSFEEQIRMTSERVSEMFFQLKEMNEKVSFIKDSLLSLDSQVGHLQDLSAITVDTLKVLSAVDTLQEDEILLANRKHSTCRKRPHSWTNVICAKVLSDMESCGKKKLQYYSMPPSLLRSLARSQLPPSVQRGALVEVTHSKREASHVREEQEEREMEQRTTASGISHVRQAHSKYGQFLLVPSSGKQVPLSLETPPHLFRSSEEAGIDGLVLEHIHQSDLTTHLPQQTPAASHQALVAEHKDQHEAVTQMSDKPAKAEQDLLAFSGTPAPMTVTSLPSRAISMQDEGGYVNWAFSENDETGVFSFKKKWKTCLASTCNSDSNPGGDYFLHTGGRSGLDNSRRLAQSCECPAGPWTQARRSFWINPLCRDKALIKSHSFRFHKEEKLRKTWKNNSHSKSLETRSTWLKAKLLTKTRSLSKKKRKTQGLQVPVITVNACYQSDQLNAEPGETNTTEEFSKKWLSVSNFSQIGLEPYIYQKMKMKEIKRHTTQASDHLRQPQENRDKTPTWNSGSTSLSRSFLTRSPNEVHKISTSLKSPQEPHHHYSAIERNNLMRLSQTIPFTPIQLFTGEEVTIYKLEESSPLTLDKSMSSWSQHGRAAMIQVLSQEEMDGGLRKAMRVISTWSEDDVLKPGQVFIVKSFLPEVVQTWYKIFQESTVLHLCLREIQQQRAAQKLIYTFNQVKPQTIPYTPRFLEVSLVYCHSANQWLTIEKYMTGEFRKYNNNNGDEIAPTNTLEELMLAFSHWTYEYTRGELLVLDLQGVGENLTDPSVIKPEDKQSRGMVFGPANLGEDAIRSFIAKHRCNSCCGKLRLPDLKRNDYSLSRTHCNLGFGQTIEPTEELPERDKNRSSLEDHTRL

Compound: Nc1ncnc2c1ncn2[C@@H]1O[C@H](COP(=O)(O)OP(=O)(O)OP(=O)(O)O)[C@@H](O)[C@H]1O [Mg·ATP]
IC50 (mTRPM7): 2.93 mM

Compound: c1ccc2c(c1)CCC[C@H]2Nc1nc2ccccc2[nH]1 [NS8593]
whole-cell patch clamp; 10 μM inhibits currents (mTRPM6): We noted that NS8593 caused a rapid irreversible inhibition of mTRPM6

whole-cell currents at break-in (pre-activated outward currents) in HEK 293 cells co-transfected with mTRPM6 and mTRPM7, against cells with mTRPM7 alone [1]: 10 fold
Compound: mouse TRPM6 with a C-terminal yellow fluorescent protein tag (mTRPM6-YFP), Q8CIR4 1-2028
